# According to patent US8648205B2, “Metal complexes of N-heterocyclic carbenes” (The University of Akron, priority 2003, dated 2014):
# Values joined by “and” are separate entries in the source; they are usually repeats but may differ in a detail not shown here. Equal values may be shown once. “Also recorded” adds a separate entry of the source.
# Columns and labels:
# rats = assay: Toxicity studies with rats, clearance by mass spectroscopy of the urine; assay type: in vivo
# [1] = tested on: S. aureus, P. aeruginosa, and E. coli; assay: filter disk test and standard MIC technique; assay type: cell-based
# [2] = stability (air, light, water, chloride, storage)
# [3] = LD50 in rats, preliminary studies; conditions: rat, in vivo, imidazolium cation portion
# From the text: The imidazolium salt 1,3,9-trimethyl-7-(2,3-dihyroxypropyl)xanthinium iodide represented by Formula 201 is obtained by reacting 7-(2,3-dihydroxypropyl)theophylline (Formula 200) with methyl iodide in dimethylformamide. The imidazolium salt represented by Formula 201 reacts with silver acetate in methanol to yield the N-heterocyclic carbene silver(I) acetate complex (Formula 202), which is a white solid in 34% yield (structure confirmed by X-ray crystallography). The compound represented by Formula 202 is water soluble (Ksp=82 mg/mL) and is stable for at least 7 days in water by NMR. As the compound represented by Formula 202 decomposes to release Ag^+ thereby regenerating the cationic portion of the compound of Formula 201. The imidazolium cation portion of the compound represented by Formula 201 has an LD50 in rats of >2.0 g/kg in preliminary studies.
# [4] = tested on: bladder carcinoma-derived T24 epithelial cell line (ATCC HTB-4); assay: In vitro toxicity, propidium iodide flow cytometry; assay type: cell-based
# Procedure: A prerequisite for a topical biocide is that it confers acceptable toxicity to the tissue(s) of interest. In vitro toxicity of the compound represented by Formula 202 has been studied using the bladder carcinoma-derived T24 epithelial cell line (ATCC HTB-4). T24 cells were grown in RPMI 1640 medium available from Life Technologies (Carlsbad, Calif.) supplemented with 10% fetal bovine serum available from Sigma (St. Louis, Mo.), seeded into 24-well plates, and grown to confluence over 48 hours. Cells were washed with sterile phosphate buffered saline (PBS) and fresh warmed medium was added, either alone or containing the compound represented by Formula 202 (added to the medium at the start of the experiment to minimize premature liberation of Ag^+ from the compound represented by Formula 202) at concentrations between 5 and 50 μg/mL. After incubation for 1 to 2 hours, cells were released by treatment with 0.05% trypsin-0.02% EDTA, suspended in sorting buffer, stained with propidium iodide, and subjected to flow cytometry on a FACS Calibur instrument available from Becton Dickinson (Piscataway, N.J.).
# physchem = conditions: water
# panel of E. coli = assay: MIC for a panel of E. coli (UTI strains), 96-well plate; conditions: Escherichia coli, 16 h
# [5] = tested on: Escherichia coli, Staphylococcus aureus, and Pseudomonas aeruginosa; assay: agar plates overlay method, summary of Table 2; assay type: cell-based
# Procedure: (§1) The usefulness of the compounds represented by Formulas 103 and 55 as antimicrobial agents was evaluated. In this test, a filter paper disc of 6 mm diameter was soaked with 20 μL of a silver compound of known concentration, and placed over a lawn of an organism in the agar plate. The diameter of the area in which growth of the organism is inhibited by the test solution was measured after an over night incubation as a measure of the relative antimicrobial activity of the silver compounds. The test organisms were Escherichia coli, Staphylococcus aureus, and Pseudomonas aeruginosa.
# solubility = conditions: 37: bromide salt; 20a, 20b: bromide salts
# Pseudomonas aeruginosa = assay type: cell-based
# Procedure: as §1, with “In” for “The usefulness of the compounds represented by Formulas 103 and 55 as antimicrobial agents was evaluated. In”
# Escherichia coli = assay type: cell-based
# Procedure: as §1, with “In” for “The usefulness of the compounds represented by Formulas 103 and 55 as antimicrobial agents was evaluated. In”
# Staphylococcus aureus = assay type: cell-based
# Procedure: as §1, with “In” for “The usefulness of the compounds represented by Formulas 103 and 55 as antimicrobial agents was evaluated. In”
# [6] = tested on: Escherichia coli, Staphylococcus aureus, and Pseudomonas aeruginosa; conditions: supernatants, less silver chloride
# E. coli (ATCC 8739) = assay: MIC test in LB broth comparing AgNO3 and complex 106; assay type: cell-based; design: key: +=growth; −=no growth
# [7] = tested on: P. aeruginosa (ATCC 9027); assay: as above; assay type: cell-based; design: key: +=growth; −=no growth
# [8] = tested on: E. coli, P. aeruginosa, S. aureus; assay: MIC test in aqueous LB broth, summary of Table 5; assay type: cell-based
# S. aureus (ATCC 6538) = assay: MIC test in LB broth comparing AgNO3 and complex 106; assay type: cell-based; design: key: +=growth; −=no growth
# [9] = Day 1, 1DF: AgNO3 1731.18, 106 1675.74 μg/mL
# [10] = Day 1, 2DF: AgNO3 865.59, 106 837.87 μg/mL
# [11] = Day 1, 3DF: AgNO3 432.79, 106 418.94 μg/mL
# [12] = Day 1, 4DF: AgNO3 216.40, 106 209.47 μg/mL
# [13] = Day 1, undiluted: AgNO3 0.50 wt/V % (3462.35 μg/mL), 106 1.38 wt/V % (3341.48 μg/mL)
# [14] = Day 2, 1DF: AgNO3 1731.18, 106 1675.74 μg/mL
# [15] = Day 2, 2DF: AgNO3 865.59, 106 837.87 μg/mL
# [16] = Day 2, 3DF: AgNO3 432.79, 106 418.94 μg/mL
# [17] = Day 2, 4DF: AgNO3 216.40, 106 209.47 μg/mL
# [18] = Day 2, undiluted: AgNO3 0.50 wt/V % (3462.35 μg/mL), 106 1.38 wt/V % (3341.48 μg/mL)
smiles,measurement,setting,value
OCC[n+]1ccn(Cc2cccc(Cn3cc[n+](CCO)c3)n2)c1.[Br-].[Br-] [Formula 19a],toxicity,rats,low toxicity
same,clearance through the kidneys,rats; mass spectroscopy of the urine,clears within two days
CC(=O)[O][Ag][CH]1N(C)c2c(n(C)c(=O)n(C)c2=O)N1C (centres unmarked) [Formula 100],antimicrobial activity,[1],effective antimicrobial activity
same,stability in air and light,[2],air stable
CN1CN(CC(O)CO)c2c1n(C)c(=O)n(C)c2=O (centres unmarked) [Formula 201],LD50,[3],> 2000 mg/kg
CC(=O)[O][Ag][CH]1N(C)c2c(c(=O)n(C)c(=O)n2C)N1CC(O)CO (centres unmarked) [Formula 202],loss of viability,[4]; 1 h of treatment at 5 μg/mL,~5%
same,loss of viability,[4]; 2 hours of treatment at 5 μg/mL,approximately 11%
same,solubility,physchem,82 mg/mL
same,MIC,panel of E. coli,2 to 4 µg/mL
same,shelf life,[2]; room temperature,several months
same,stable in solid form,[2]; solid form,a couple months
same,stable in water by NMR,[2]; water,at least 7 days
F[P-](F)(F)(F)(F)F.F[P-](F)(F)(F)(F)F.OCCn1cc[n+]2[c]1[Ag-][c]1n(CCO)cc[n+]1Cc1cccc(n1)C[n+]1ccn(CCO)[c]1[Ag-][c]1n(CCO)cc[n+]1Cc1cccc(n1)C2 [Compound 105],antimicrobial properties (Table 2 summary),[5],comparable to silver nitrate
same,solubility in water / aqueous media,solubility,is not; also recorded: soluble in aqueous media
same,Diameter of Inhibited Area,Pseudomonas aeruginosa,12 mm and 10.25 mm
same,Diameter of Inhibited Area,Escherichia coli,10 mm and 11.58 mm
same,Diameter of Inhibited Area,Staphylococcus aureus,9 mm and 10.67 mm
same,antimicrobial activity compared with silver nitrate (Table 3 summary),[6],better antimicrobial activity than silver nitrate
OC1(O)CN2C=CN3Cc4cccc(n4)CN4C=CN(C1)[CH]4[Ag+][CH]1N4C=CN1CC(O)(O)CN1C=CN(Cc5cccc(n5)C4)[CH]1[Ag][CH]32 [Complex 106],solubility in water / aqueous media,solubility,sparingly soluble in water
same,growth / no growth,E. coli (ATCC 8739); [9],−
same,growth / no growth,E. coli (ATCC 8739); [10],−
same,growth / no growth,E. coli (ATCC 8739); [11],−
same,growth / no growth,E. coli (ATCC 8739); [12],−
same,growth / no growth,E. coli (ATCC 8739); [13],−
same,growth / no growth,E. coli (ATCC 8739); [14],−
same,growth / no growth,E. coli (ATCC 8739); [15],−
same,growth / no growth,E. coli (ATCC 8739); [16],+
same,growth / no growth,E. coli (ATCC 8739); [17],+
same,growth / no growth,E. coli (ATCC 8739); [18],−
same,growth / no growth,[7]; [9],−
same,growth / no growth,[7]; [10],−
same,growth / no growth,[7]; [11],−
same,growth / no growth,[7]; [12],−
same,growth / no growth,[7]; [13],−
same,growth / no growth,[7]; [14],−
same,growth / no growth,[7]; [15],−
same,growth / no growth,[7]; [16],+
same,growth / no growth,[7]; [17],+
same,growth / no growth,[7]; [18],−
same,"antimicrobial activity of the aqueous form, fold less effective than 0.5% AgNO3",[8]; about the same amount of silver,2 fold
same,MIC,"[8]; after 48 hrs of incubation, read-out: MIC concentration",838 µg/mL
same,growth / no growth,S. aureus (ATCC 6538); [9],−
same,growth / no growth,S. aureus (ATCC 6538); [10],−
same,growth / no growth,S. aureus (ATCC 6538); [11],−
same,growth / no growth,S. aureus (ATCC 6538); [12],−
same,growth / no growth,S. aureus (ATCC 6538); [13],−
same,growth / no growth,S. aureus (ATCC 6538); [14],−
same,growth / no growth,S. aureus (ATCC 6538); [15],−
same,growth / no growth,S. aureus (ATCC 6538); [16],+
same,growth / no growth,S. aureus (ATCC 6538); [17],+
same,growth / no growth,S. aureus (ATCC 6538); [18],−
same,stability in air and light,[2],air and light stable
same,stability in water,"[2]; 37: bromide salt, 20a, 20b: bromide salts",quick decomposition
